Source: US8426371B2, “Biologically active extract from Dendrobium plant, use thereof and process for preparing the same” (National Yang-Ming University, priority 2007, dated 2013)

Tested on: RPE cells
Assay: Phagocytosis of RPE: FITC-ROS uptake, fluorescence intensity (total; ingestion with fluoro Quench dye)
Format: cell-based
Conditions: for effect on the total phagocytosis of RPE: 0.1, 1, 10, 100 μg/ml, 24 hrs treatment in 2% FCS DMEM, then FITC-ROS 4 hrs, compared with 2% FCS; for effect on the phagocytosis of RPE (total and ingestion, FIGS. 8-15): summary based on FIGS. 8-15
Method: 1×10^4 RPE cells are seeded in 96-well microplate per well, containing 5% FCS in DMEM after 48 hrs, and the medium is changed with 2% FCS in DMEM. Then different concentrations of DCMPbL6,7D2H2H3 are added respectively. After 24 hrs, 50 μl of 2×10^7 FITC-ROS/ml is added into each well. Four hours later, the unbounded FITC-ROS is washed out with PBS+2% sucrose. The emission wavelength is 485 nm and the detecting wavelength is 530 nm. The fluorescence intensity is detected by a 1420 Multilable counter (PE) measurement system. The detected fluorescence intensity represents the total phagocytosis. If the fluoro Quench dye is added, the detected fluorescence intensity represents the ingestion phagocytosis. *P<0.05, **P<0.02, ***P<0.01 and ****P<0.001 are obtained by comparing with phagocytosis of RPE treated with 2% FCS.
1×10^4 RPE cells are seeded in 96-well microplate per well, containing 5% FCS in DMEM after 48 hrs, and the medium is changed with 2% FCS in DMEM. Then different concentrations of DCMPbL6,7D2H2H3H2 are added respectively. After 24 hrs, 50 μl of 2×10^7 FITC-ROS/ml is added into each well. Four hours later, the unbounded FITC-ROS is washed out with PBS+2% sucrose. The emission wavelength is 485 nm and the detecting wavelength is 530 nm. The fluorescence intensity is detected by a 1420 Multilable counter (PE) measurement system. The detected fluorescence intensity represents the total phagocytosis. If the fluoro Quench dye is added, the detected fluorescence intensity represents the ingestion phagocytosis. *P<0.05, **P<0.02, ***P<0.01 and ****P<0.001 are obtained by comparing with phagocytosis of RPE treated with 2% FCS.
1×10^4 RPE cells are seeded in 96-well microplate per well, containing 5% FCS in DMEM after 48 hrs, and the medium is changed with 2% FCS in DMEM. Then different concentrations of DCMPbL6,7D2H2H3H3 are added respectively. After 24 hrs, 50 μl of 2×10^7 FITC-ROS/ml is added into each well. Four hours later, the unbounded FITC-ROS is washed out with PBS+2% sucrose. The emission wavelength is 485 nm and the detecting wavelength is 530 nm. The fluorescence intensity is detected by a 1420 Multilable counter (PE) measurement system. The detected fluorescence intensity represents the total phagocytosis. If the fluoro Quench dye is added, the detected fluorescence intensity represents the ingestion phagocytosis. *P<0.05, **P<0.02, ***P<0.01 and ****P<0.001 are obtained by comparing with phagocytosis of RPE treated with 2% FCS.
1×10^4 RPE cells are seeded in 96-well microplate per well, containing 5% FCS in DMEM after 48 hrs, and the medium is changed with 2% FCS in DMEM. Then different concentrations of DCMPbL6,7D2H2H3H4 are added respectively. After 24 hrs, 50 μl of 2×10^7 FITC-ROS/ml is added into each well.

| SMILES | effect on the total phagocytosis of RPE | effect on the phagocytosis of RPE (total and ingestion, FIGS. 8-15) |
| --- | --- | --- |
| O=c1cc(-c2ccc(O)cc2)oc2c([C@@H]3OC[C@H](O)[C@H](O)[C@H]3O)c(O)c([C@@H]3OC[C@@H](O)[C@H](O)[C@H]3O)c(O)c12 [DCMPbL6,7D2H2H3H2, apigenin 6-C-β-D-Xylopyranosyl-8-C-α-L-arabinopyranoside] | can accelerate the phagocytosis of RPE | could accelerate the phagocytosis of RPE |
| O=c1cc(-c2ccc(O)cc2)oc2c([C@@H]3OC[C@@H](O)[C@@H](O)[C@@H]3O)c(O)c([C@@H]3OC[C@H](O)[C@H](O)[C@H]3O)c(O)c12 [DCMPbL6,7D2H2H3H4, apigenin 6-C-α-L-Arabinopyranosyl-8-C-β-D-arabinopyranoside] | can accelerate the phagocytosis of RPE | could accelerate the phagocytosis of RPE |
| O=c1cc(-c2ccc(O)cc2)oc2c([C@@H]3OC[C@H](O)[C@H](O)[C@H]3O)c(O)c([C@@H]3OC[C@H](O)[C@H](O)[C@H]3O)c(O)c12 [DCMPbL6,7D2H2H3H3, apigenin 6,8-Di-C-α-L-arabinopyranoside] | can accelerate the phagocytosis of RPE | could accelerate the phagocytosis of RPE |
